From patent US8163793B2, “Proline derivatives” (Hoffman-La Roche Inc., priority 2009, dated 2012)
Counter-ions that a name gives are not always drawn.

Columns and labels:
Cathepsin S = Cathepsin S (UniProt P25774); experiment: Cathepsin enzyme inhibition assay (fluorogenic peptide substrate Z-Val-Val-Arg-AMC), Cathepsin S; type: biochemical, human and mouse; details: enzyme 1 nM, substrate 20 μM, pH 6.5; read-out: CatS IC50
Procedure, shortened: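 Human or mouse cathepsin S (1 nM) was run in 100 mM potassium phosphate pH 6.5 with 5 mM EDTA, 0.001% Triton X-100 and 5 mM DTT. The rise in AMC fluorescence from cleavage was measured, and IC50 values were calculated by standard methods and expressed in μM.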

Cat L = Cat L (UniProt P07711); experiment: Cathepsin enzyme inhibition assay (fluorogenic peptide substrate Z-Val-Val-Arg-AMC), Cathepsin L; type: biochemical, human and mouse; details: enzyme 1 nM, substrate 20 μM, pH 6.5; read-out: CatL IC50
Procedure, shortened: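 Cathepsin L at 1 nM was mixed with compound, then started with 20 μM Z-Val-Val-Arg-AMC in pH 6.5 potassium phosphate with EDTA, Triton X-100 and 5 mM DTT. AMC fluorescence (ex 360/em 465 nm) was followed over 20 min. IC50 is given in μM.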

| Compound | IC50 (Cathepsin S) [nM] | IC50 (Cat L) [nM] |
| --- | --- | --- |
| CC(Oc1ccc(S(=O)(=O)[C@@H]2C[C@@H](C(=O)NC3(C#N)CC3)N(C(=O)C3(C(F)(F)F)CC3)C2)c(Cl)c1)C(F)(F)F (stereo partly drawn) [Example 149, (2S,4R)-4-[2-Chloro-4-(2,2,2-trifluoro-1-methyl-ethoxy)-benzenesulfonyl]-1-(1-trifluoromethyl-cyclopropanecarbonyl)-pyrrolidine-2-carboxylic acid (1-cyano-cyclopropyl)-amide] | 0.7 | 8100 |
| N#CCNC(=O)[C@@H]1C[C@@H](S(=O)(=O)c2ccccc2C(F)(F)F)CN1C(=O)c1ccncc1 [Example 69, (2S,4R)-1-(Pyridine-4-carbonyl)-4-(2-trifluoromethyl-benzenesulfonyl)-pyrrolidine-2-carboxylic acid cyanomethyl-amide] | 0.4 | ≥ 25000 |
| N#CC1(NC(=O)[C@@H]2C[C@@H](S(=O)(=O)c3ccc(-n4cnc5cnccc54)cc3Cl)CN2C(=O)C2(c3ccc(Cl)cc3)CC2)CC1 [Example 349, (2S,4R)-4-(2-Chloro-4-imidazo[4,5-c]pyridin-1-yl-benzenesulfonyl)-1-[1-(4-chloro-phenyl)-cyclopropanecarbonyl]-pyrrolidine-2-carboxylic acid (1-cyano-cyclopropyl)-amide] | 0.03 | 220 |
| CC(C)(C)C(=O)N1C[C@H](S(=O)(=O)c2ccc(F)cc2C(F)(F)F)C[C@H]1C(=O)NC1(C#N)CC1 [Example 210, (2S,4R)-1-(2,2-Dimethyl-propionyl)-4-(4-fluoro-2-trifluoromethyl-benzenesulfonyl)-pyrrolidine-2-carboxylic acid (1-cyano-cyclopropyl)-amide] | 0.4 | ≥ 25000 |
| N#CC1(NC(=O)[C@@H]2C[C@@H](S(=O)(=O)c3ccccc3Cl)CN2Cc2ccncc2)CC1 [Example 86, (2S,4R)-4-(2-Chloro-benzenesulfonyl)-1-pyridin-4-ylmethyl-pyrrolidine-2-carboxylic acid (1-cyano-cyclopropyl)-amide] | 23 | 14600 |
| N#CC1(NC(=O)[C@@H]2C[C@@H](S(=O)(=O)c3ccc(N4CCCC4=O)cc3C(F)(F)F)CN2)CC1 [Example 26, (2S,4R)-4-[4-(2-Oxo-pyrrolidin-1-yl)-2-trifluoromethyl-benzenesulfonyl]-pyrrolidine-2-carboxylic acid (1-cyano-cyclopropyl)-amide hydrochloride] | 2.8 | ≥ 25000 |
| Cc1cc(N2C[C@H](S(=O)(=O)c3ccccc3Cl)C[C@H]2C(=O)NC2(C#N)CC2)n(Cc2cncn2C)n1 [Example 476, (2S,4R)-4-(2-Chloro-benzenesulfonyl)-1-[5-methyl-2-(3-methyl-3H-imidazol-4-ylmethyl)-2H-pyrazol-3-yl]-pyrrolidine-2-carboxylic acid (1-cyano-cyclopropyl)-amide] | 6.6 | 4760 |
| CCN1CCN(c2ccc(S(=O)(=O)[C@@H]3C[C@@H](C(=O)NC4(C#N)CC4)N(C(=O)C4(C(F)(F)F)CC4)C3)c(Cl)c2)CC1 [Example 141, (2S,4R)-4-[2-Chloro-4-(4-ethyl-piperazin-1-yl)-benzenesulfonyl]-1-(1-trifluoromethyl-cyclopropanecarbonyl)-pyrrolidine-2-carboxylic acid (1-cyano-cyclopropyl)-amide] | 0.6 | 3460 |
| N#CC1(NC(=O)[C@@H]2C[C@@H](S(=O)(=O)c3ccc(N4CCOCC4)cc3Cl)CN2C(=O)C2(C(F)(F)F)CC2)CC1 [Example 161, (2S,4R)-4-(2-Chloro-4-morpholin-4-yl-benzenesulfonyl)-1-(1-trifluoromethyl-cyclopropanecarbonyl)-pyrrolidine-2-carboxylic acid (1-cyano-cyclopropyl)-amide] | 0.4 | 6070 |
